The test deals with db/db mice. Briefly: Evaluation of glucose levels in db/db mice. It counts as in vivo. The note with it: Mus musculus, 168 h; 30 mg/kg daily oral gavage 7 days, male db/db mice; 100% = lean values; read-out: Glucose Normalization %. On the procedure: Five week old male diabetic (db/db) mice [C57BlKs/j-m +/+ Lepr(db), Jackson Laboratory, Bar Harbor, Me.] or lean littermates (db+) were housed 6 per cage (10″×20″×8″ with aspen chip bedding) with food (Purina 5015) and water available at all times. After an acclimation period of 2 weeks, animals were individually identified by ear notches, weighed, and bled via the tail vein for determination of initial glucose levels. Blood was collected (100 μl) from unfasted animals by wrapping each mouse in a towel, cutting the tip of the tail with a scalpel, and milking blood from the tail into a heparinized capillary tube (Fisher) balanced on the edge of the bench. Sample was discharged into a heparinized microtainer with gel separator (VWR) and retained on ice. Plasma was obtained after centrifugation at 4° C. and glucose measured immediately. Remaining plasma was frozen until the completion of the experiment, when glucose and triglycerides were assayed in all samples. Animals were grouped based on initial glucose levels and body weights. Beginning the following morning, mice were dosed daily by oral gavage for 7 days using a 20 gauge, 1½″ curved disposable feeding needle. Treatments were test compounds (30 mg/kg), a positive control agent (30 mg/kg) or vehicle [1% carboxymethylcellulose (w/v)/0.25% Tween80 (w/v); 0.3 ml/mouse]. On day 7, mice were weighed and bled (tail vein) 3 hours after dosing. Twenty-four hours after the 7th dose (i.e., day 8), animals were bled again (tail vein). Samples obtained from conscious animals on days 0, 7 and 8 were assayed for glucose. After the 24 hour bleed, animals were weighed and dosed for the final time. Three hours after dosing on day 8, animals were anesthetized by inhalation of isoflurane and blood obtained via cardiac puncture (0.5-0.7 ml). Whole blood was transferred to serum separator tubes, chilled on ice and permitted to clot. Serum was obtained after centrifugation at 4° C. and frozen until analysis for compound levels. After sacrifice by cervical dislocation, the liver, heart and epididymal fat pads were excised and weighed.
The animals dosed with vehicle had average triglycerides values of 170-230 mg/dl, which were reduced by the positive PPARγ control (70-120 mg/dl with a mean reduction of 50%). Male db/db mice were hyperglycemic (average glucose of 680-730 mg/dl on the 7th day of treatment), while lean animals had average glucose levels between 190-230 mg/dl.
Glucose was measured colorimetrically using commercially purchased reagents (Sigma #315-500). According to the manufacturers, the procedures were modified from published work (McGowan, M. W., Artiss, J. D., Strandbergh, D. R. & Zak, B. Clin Chem, 20:470-5 (1974) and Keston, A. Specific colorimetric enzymatic analytical reagents for glucose. Abstract of papers 129th Meeting ACS, 31C (1956).); and depend on the release of a mole of hydrogen peroxide for each mole of analyte, coupled with a color reaction first described by Trinder (Trinder, P. Determination of glucose in blood using glucose oxidase with an alternative oxygen acceptor. Ann Clin Biochem, 6:24 (1969)). The absorbance of the dye produced is linearly related to the analyte in the sample. The assays were further modified in our laboratory for use in a 96 well format. Standards (Sigma #339-11, Sigma #16-11, and Sigma #CC0534 for glucose triglycerides and total cholesterol, respectively), quality control plasma (Sigma # A2034), and samples (2 or 5 μl/well) were measured in duplicate using 200 μl of reagent. An additional aliquot of sample, pipetted to a third well and diluted in 200 μl water, provided a blank for each specimen. Plates were incubated at room temperature (18, 15, and 10 minutes for glucose, triglycerides and total cholesterol, respectively) on a plate shaker (DPC Micormix 5) and absorbance read at 500 nm (glucose and total cholesterol) or 540 nm (triglycerides) on a plate reader (Wallac Victor 1420). […]

Turning to `Cc1oc(-c2ccccc2)nc1CCOc1ccc(OC(C)(C)C(=O)O)c(CCc2ccccc2)c1` [Example 30J, 2-Methyl-2-{4-[2-(5-methyl-2-phenyloxazol-4-yl)ethoxy]-2-phenethylphenoxy}propionic acid], the inhibition in vivo at 30 mg/kg was determined as 58%.

For the compound `Cc1cc(OCCc2nc(-c3ccccc3)oc2C)ccc1OC(C)(C)C(=O)O` [Example 24, 2-Methyl-2-{2-methyl-4-[2-(5-methyl-2-phenyloxazol-4-yl)ethoxy]phenoxy}propionic acid], the inhibition in vivo at 30 mg/kg worked out at 72%. With `Cc1oc(-c2ccccc2)nc1CCOc1ccc(OC(C)(C)C(=O)O)c2ccccc12` [Example 37, 2-Methyl-2-{4-[2-(5-methyl-2-phenyl-oxazol-4-yl)-ethoxy]-naphthalen-1-yloxy}-propionic acid], the inhibition in vivo at 30 mg/kg stood at 56%. With `CCCc1cc(OCCc2nc(-c3ccccc3)oc2C)ccc1OC(C)(C)C(=O)O` [Example 26A, 2-Methyl-2-{4-[2-(5-methyl-2-phenyloxazol-4-yl)ethoxy]-2-propylphenoxy}propionic acid], the inhibition in vivo at 30 mg/kg is 77%. The result for `Cc1oc(-c2ccccc2)nc1CCOc1ccc(OC(C)(C)C(=O)O)c(CC(C)C)c1` [Example 30C, 2-{2-Isobutyl-4-[2-(5-methyl-2-phenyloxazol-4-yl)ethoxy]phenoxy}-2-methylpropionic acid] reads 48%; that for `CCCCc1cc(OC(C)(C)C(=O)O)ccc1OCCc1nc(-c2ccccc2)oc1C` [Example 31F, 2-{3-Butyl-4-[2-(5-methyl-2-phenyloxazol-4-yl)ethoxy]phenoxy}-2-methylpropionic acid], 77%. In the case of `CCCc1cc(OCCc2nc(-c3ccccc3)oc2C)ccc1OCC(=O)O` [Example 26, {4-[2-(5-methyl-2-phenyl-oxazol-4-yl)ethoxy]-2-propylphenoxy}acetic acid], the inhibition in vivo at 30 mg/kg is 42%.

Regarding `Cc1oc(-c2ccccc2)nc1CCOc1ccc(OC(C)(C)C(=O)O)cc1` [Example 1, 2-Methyl-2-{4-[2-(5-methyl-2-phenyloxazol-4-yl)ethoxy]phenoxy}propionic acid], the inhibition in vivo at 30 mg/kg is 38%. The result for `Cc1oc(-c2ccccc2)nc1CCOc1ccc(OC(C)(C)C(=O)O)c2c1CCCC2` [Example 38, 2-Methyl-2-{4-[2-(5-methyl-2-phenyl-oxazol-4-yl)-ethoxy]-5,6,7,8-tetrahydro-naphthalen-1-yloxy}-propionic acid] reads 38%; that for `CCc1cc(OCCc2nc(-c3ccccc3)oc2C)ccc1OC(C)(C)C(=O)O` [Example 30A, 2-{2-Ethyl-4-[2-(5-methyl-2-phenyloxazol-4-yl)ethoxy]phenoxy}2-methylpropionic acid], 76%. For the compound `CCc1cccc(-c2nc(CCOc3ccc(OC(C)(C)C(=O)O)cc3)c(C)o2)c1` [Example 12, 2-(4-{2-[2-(3-Ethylphenyl)-5-methyloxazol-4-yl]ethoxy}phenoxy)-2-methylpropionic acid], the inhibition in vivo at 30 mg/kg amounted to 101%. Turning to `CCc1ccc(-c2nc(CCOc3ccc(OC(C)(C)C(=O)O)cc3)c(C)o2)cc1` [Example 13, 2-(4-{2-[2-(4-Ethylphenyl)-5-methyloxazol-4-yl]ethoxy}phenoxy)-2-methylpropionic acid], the inhibition in vivo at 30 mg/kg is 65%. The result for `Cc1oc(-c2cccc(Br)c2)nc1CCOc1ccc(OC(C)(C)C(=O)O)cc1` [Example 9A, 2-(4-{2-[2-(3-Bromophenyl)-5-methyloxazol-4-yl]ethoxy}phenoxy)-2-methylpropionic acid] reads 86%. Regarding `Cc1oc(-c2ccc(OC3CCCCC3)cc2)nc1CCOc1ccc(OC(C)(C)C(=O)O)cc1` [Example 21, 2-(4-{2-[2-(4-Cyclohexyloxy-phenyl)-5-methyl-oxazol-4-yl]-ethoxy}-phenoxy)-2-methyl-propionic acid], the inhibition in vivo at 30 mg/kg came to 23%. The result for `CCCc1cc(OC(C)(C)C(=O)O)ccc1OCCc1nc(-c2ccccc2)oc1C` [Example 27A, 2-Methyl-2-{4-[2-(5-methyl-2-phenyloxazol-4-yl)ethoxy]-3-propylphenoxy}propionic acid] reads 62%.

As to `Cc1oc(-c2cccc(CCc3ccccc3)c2)nc1CCOc1ccc(OC(C)(C)C(=O)O)cc1` [Example 12A, 2-Methyl-2-(4-{2-[5-methyl-2-(3-phenethylphenyl)oxazol-4-yl]ethoxy}phenoxy)-propionic acid], the inhibition in vivo at 30 mg/kg was determined as 51%. For the compound `Cc1oc(-c2ccccc2)nc1CCOc1ccc(OC(C)(C)C(=O)O)c(Cc2ccccc2)c1` [Example 32, 2-{2-Benzyl-4-[2-(5-methyl-2-phenyloxazol-4-yl)ethoxy]phenoxy}-2-methylpropionic acid], the inhibition in vivo at 30 mg/kg came out at 47%.

The values above are taken from patent US7351728B2, “Oxazolyl-aryloxyacetic acid derivatives and their use as PPAR agonists” (Eli Lilly and Company, priority 2003, dated 2008).
